In paper PMC6006479, “Minimization of dynamic effects in the evolution of dihydrofolate reductase” (Chemical Science, 2016):

Target: T1, MpDHFR (Moritella profunda, UniProt Q70YQ6)
T1 construct: gene dyrA; purified recombinant enzyme made in minimal medium; 'light' form with natural abundance isotopes; construct details only in supplement; monomeric
Assay: steady-state kinetics
Assay type: biochemical
Conditions: light (natural abundance) enzyme, pH 7.0

T1 sequence (Q70YQ6 entry or part of it): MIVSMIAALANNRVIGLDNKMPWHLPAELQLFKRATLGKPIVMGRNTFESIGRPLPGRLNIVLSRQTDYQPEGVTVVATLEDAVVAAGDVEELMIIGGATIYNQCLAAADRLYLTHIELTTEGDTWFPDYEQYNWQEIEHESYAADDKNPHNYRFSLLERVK

NC(=O)C1=CN([C@@H]2O[C@H](COP(=O)(O)OP(=O)(O)OC[C@H]3O[C@@H](n4cnc5c(N)ncnc54)[C@H](OP(=O)(O)O)[C@@H]3O)[C@@H](O)[C@H]2O)C=CC1 [NADPH]
Michaelis constant (co-substrate dihydrofolate): The Michaelis constants for NADPH and DHF are essentially the same for all these enzymes

Nc1nc2c(c(=O)[nH]1)N=C(CNc1ccc(C(=O)N[C@@H](CCC(=O)O)C(=O)O)cc1)CN2 [DHF]
Michaelis constant (co-substrate NADPH): The Michaelis constants for NADPH and DHF are essentially the same for all these enzymes
